Assay results as given in paper PMC8342005, “A two-step resin based approach to reveal survivin-selective fluorescent probes” (RSC Chemical Biology, 2020).

What was measured:
survivin [1] = target: T1, survivin (Homo sapiens, UniProt O15392); test: fluorescence intensity titration of the intrinsically fluorescent ligand with survivin; also CONA bead imaging and affinity resin capture; assay type: binding
T1 construct: gene BIRC5; His6-tagged full length survivin

survivin [2] = target: T1, survivin; test: fluorescence intensity titration of the intrinsically fluorescent ligand with survivin ([…] fit); also CONA bead imaging, affinity resin capture, native PAGE; assay type: binding

T1 sequence (O15392 whole entry): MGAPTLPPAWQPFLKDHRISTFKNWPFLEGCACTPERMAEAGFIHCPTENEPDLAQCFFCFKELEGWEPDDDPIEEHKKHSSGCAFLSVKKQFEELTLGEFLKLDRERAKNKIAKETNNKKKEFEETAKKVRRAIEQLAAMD

| SMILES | Kd (survivin [1]) | Kd (survivin [2]) |
| --- | --- | --- |
| COc1cc2[nH]c1/C=C1/C=CC(=N1)CCCCCCCCCc1ccc-2[nH]1 [compound 1, cyclononylprodigiosin] | 149 ± 8.3 µM |  |
| CCCCCC1=C/C(=C/c2[nH]c(-c3ccc[nH]3)cc2OC)N=C1C [compound 2, prodigiosin] |  | 11.5 ± 3.1 µM |
